Measured values from ChEMBL document CHEMBL4152201, “Novel sarsasapogenin-triazolyl hybrids as potential anti-Alzheimer's agents: Design, synthesis and biological evaluation” (Eur J Med Chem, 2018).
Calls of active or inactive are those of the source. The rule behind the calls is not given here.

Tests used:
[1] = target: T1, Amyloid-beta precursor protein (Homo sapiens, UniProt P05067); assay: Inhibition of amyloid beta (1 to 42) (unknown origin) self-aggregation at 20 uM after 24 hrs by thioflavin-T fluorescence assay relative to control
T1 sequence (P05067 whole entry): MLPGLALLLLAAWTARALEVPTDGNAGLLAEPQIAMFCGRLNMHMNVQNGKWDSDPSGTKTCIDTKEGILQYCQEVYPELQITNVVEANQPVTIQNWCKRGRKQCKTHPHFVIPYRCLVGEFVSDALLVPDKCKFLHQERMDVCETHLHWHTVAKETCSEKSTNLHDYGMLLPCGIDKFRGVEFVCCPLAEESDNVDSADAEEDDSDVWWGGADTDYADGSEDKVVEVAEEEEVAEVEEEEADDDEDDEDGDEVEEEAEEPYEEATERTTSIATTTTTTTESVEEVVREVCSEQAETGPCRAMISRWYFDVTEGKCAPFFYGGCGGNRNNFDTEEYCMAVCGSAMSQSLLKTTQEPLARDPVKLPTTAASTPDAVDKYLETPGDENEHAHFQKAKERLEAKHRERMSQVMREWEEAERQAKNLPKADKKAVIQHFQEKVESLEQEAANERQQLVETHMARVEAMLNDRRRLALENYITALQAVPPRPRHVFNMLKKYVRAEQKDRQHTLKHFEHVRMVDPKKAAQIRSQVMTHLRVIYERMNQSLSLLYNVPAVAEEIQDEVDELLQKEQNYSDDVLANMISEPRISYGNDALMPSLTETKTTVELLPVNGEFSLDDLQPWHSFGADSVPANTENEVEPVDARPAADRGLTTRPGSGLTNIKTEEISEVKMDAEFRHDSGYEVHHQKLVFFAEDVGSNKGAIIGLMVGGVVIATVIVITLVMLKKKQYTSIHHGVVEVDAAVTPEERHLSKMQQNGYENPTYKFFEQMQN

SH-SY5Y [2] = assay: Cytotoxicity against human SH-SY5Y cells at 50 uM after 24 hrs by MTT assay; assay type: cell-based
Mus musculus [3] = assay: (§1) Neuroprotective activity in Kunming mouse model of amyloid beta (1 to 42) oligomer-induced memory impairment assessed as reduction in neuronal degeneration by measuring clear and intact neurons in CA1 and CA3 region at 17.5 to 35 mg/kg, po starting from day 1 of amyloid beta (1 to 42) oligomer treatment and measured on day 7 by TUNEL assay; assay type: functional, organism-based
Mus musculus [4] = assay: Cognitive enhancing effect in Kunming mouse model of amyloid beta (1 to 42) oligomer-induced memory impairment assessed as induction of fewer entries into dark compartment at 17.5 to 35 mg/kg, po starting from day 1 of amyloid beta (1 to 42) oligomer treatment and measured on day 7 by passive avoidance test; assay type: functional, organism-based
Mus musculus [5] = assay: Cognitive enhancing effect in Kunming mouse model of amyloid beta (1 to 42) oligomer-induced memory impairment assessed as […] in spontaneous alternation behaviors at 17.5 to 35 mg/kg/day, po starting from day 1 of amyloid beta (1 to 42) oligomer treatment and measured on day 7 by Y-maze test; assay type: functional, organism-based
SH-SY5Y [6] = assay: Neuroprotective activity against H2O2-induced oxidative stress in human SH-SY5Y cells assessed as cell viability at 50 uM pre-incubated for 1 hr followed by H2O2 addition and measured after 4 hrs by MTT assay relative to control; assay type: functional; conditions: read-out: Activity
Mus musculus [7] = assay: Neuroprotective activity in Kunming mouse model of amyloid beta (1 to 42) oligomer-induced memory impairment assessed as reduction in neuronal degeneration by measuring reduction in degenerative changes in nucleus of CA1 and CA3 region at 17.5 to 35 mg/kg, po starting from day 1 of amyloid beta (1 to 42) oligomer treatment and measured on day 7 by TUNEL assay; assay type: functional, organism-based
[8] = target: T1, Amyloid-beta precursor protein; assay: Inhibition of amyloid beta (1 to 42) (unknown origin) self-aggregation after 24 hrs by thioflavin-T fluorescence assay
Mus musculus [9] = assay: Cognitive enhancing effect in Kunming mouse model of amyloid beta (1 to 42) oligomer-induced memory impairment assessed as longer escape latency at 17.5 to 35 mg/kg, po starting from day 1 of amyloid beta (1 to 42) oligomer treatment and measured on day 7 by passive avoidance test; assay type: functional, organism-based
Mus musculus [10] = assay: Cognitive enhancing effect in Kunming mouse model of amyloid beta (1 to 42) oligomer-induced memory impairment increase in time spent in target quadrant by measuring increase in number of platform crossings at 17.5 to 35 mg/kg/day, po starting from day 1 of amyloid beta (1 to 42) oligomer treatment and measured on day 12 by Morris water maze test; assay type: functional, organism-based
[11] = target: T1, Amyloid-beta precursor protein; assay: Potency index, ratio of IC50 for curcumin to IC50 for test compound for inhibition of amyloid beta (1 to 42) (unknown origin) self-aggregation after 24 hrs by thioflavin-T fluorescence assay
Mus musculus [12] = assay: as §1, with “neural” for “neuronal”, “degeneration” for “degeneration by measuring clear and intact neurons”, “CA1” for “CA1 and CA3”, “Nissl's staining-based” for “TUNEL”; assay type: functional, organism-based
Mus musculus [13] = assay: Neuroprotective activity amyloid beta (1 to 42) oligomer-induced memory impaired Kunming mouse assessed as reduction in apoptotic cells in CA1 and CA3 hipocampal neurons at 35 mg/kg, po starting from day 1 of amyloid beta (1 to 42) oligomer treatment and measured on day 7 by TUNEL assay; assay type: functional, organism-based
SH-SY5Y [14] = assay: Neuroprotective activity against H2O2-induced oxidative stress in human SH-SY5Y cells assessed as cell viability at 25 uM pre-incubated for 1 hr followed by H2O2 addition and measured after 4 hrs by MTT assay relative to control; assay type: functional; conditions: read-out: Activity
Mus musculus [15] = assay: (§2) Memory enhancing effect in Kunming mouse model of amyloid beta (1 to 42) oligomer-induced memory impairment assessed as increase in preferential index in retention session of 1 hr at 17.5 to 35 mg/kg/day, po starting from day 1 of amyloid beta (1 to 42) oligomer treatment and measured on day 7 by novel object recognition test; assay type: functional, organism-based
Mus musculus [16] = assay: Toxicity in Kunming mouse model of amyloid beta (1 to 42) oligomer-induced memory impairment assessed as effect on number of arm entries at 17.5 to 35 mg/kg/day, po starting from day 1 of amyloid beta (1 to 42) oligomer treatment and measured on day 7 by Y-maze test; assay type: organism-based; conditions: in vivo
SH-SY5Y [17] = assay: Neuroprotective activity against H2O2-induced oxidative stress in human SH-SY5Y cells assessed as cell viability at 12.5 uM pre-incubated for 1 hr followed by H2O2 addition and measured after 4 hrs by MTT assay relative to control; assay type: functional; conditions: read-out: Activity
Mus musculus [18] = assay: Cognitive enhancing effect in Kunming mouse model of amyloid beta (1 to 42) oligomer-induced memory impairment assessed as longer escape latency at 35 mg/kg, po starting from day 1 of amyloid beta (1 to 42) oligomer treatment and measured on day 7 by passive avoidance test; assay type: functional, organism-based
Mus musculus [19] = assay: Cognitive enhancing effect in Kunming mouse model of amyloid beta (1 to 42) oligomer-induced memory impairment assessed as induction of fewer entries into dark compartment at 35 mg/kg, po starting from day 1 of amyloid beta (1 to 42) oligomer treatment and measured on day 7 by passive avoidance test; assay type: functional, organism-based
Mus musculus [20] = assay: as §2, with “17.5” for “17.5 to 35”; assay type: functional, organism-based

Work on `C[C@H]1[C@H]2[C@H](C[C@H]3[C@@H]4CC[C@@H]5C[C@@H](OCc6ccccc6)CC[C@]5(C)[C@H]4CC[C@]23C)O[C@@H]1CC[C@H](C)C(=O)NCc1cn(Cc2ccc([N+](=O)[O-])cc2)nn1` yielded an inhibition [1] of 70.7%.
In the case of `C[C@H]1[C@H]2[C@H](C[C@H]3[C@@H]4CC[C@@H]5C[C@@H](OCc6ccccc6)CC[C@]5(C)[C@H]4CC[C@]23C)O[C@@H]1CC[C@H](C)C(=O)NCc1cn(Cc2cscn2)nn1`, the Activity (SH-SY5Y [2]) is reported as “Non-Toxic”, the Activity (Mus musculus [3]) is reported as “Active” and the Activity (Mus musculus [4]) is reported as “Active”. For the same molecule, the Activity (Mus musculus [5]) was “Active”, the viability at 50 µM (SH-SY5Y [6]) was 84.9% and the Activity (Mus musculus [7]) was “Active”. For the same molecule, the IC50 [8] was 8.28 µM, the inhibition [1] was 75.1% and the Activity (Mus musculus [9]) was “Active”. The Activity (Mus musculus [10]) was “Active”, the Ratio IC50 [11] was 1.8 and the Activity (Mus musculus [12]) was “Active”. The Activity (Mus musculus [13]) was “Active”, the viability at 25 µM (SH-SY5Y [14]) was 73.3% and the Activity (Mus musculus [15]) was “Active”. For the same molecule, the Activity (Mus musculus [16]) was “Non-Toxic” and the viability at 12.5 µM (SH-SY5Y [17]) was 71.6%.
`Cc1c(C)c2c(c(C)c1O)CCC(C)(C(=O)O)O2` (stereo not drawn) [TROLOX] gave a viability at 50 µM (SH-SY5Y [6]) of 78.4%, a viability at 25 µM (SH-SY5Y [14]) of 80.1% and a viability at 12.5 µM (SH-SY5Y [17]) of 78.4%.
In the case of `COc1ccc(Cn2cc(CNC(=O)[C@@H](C)CC[C@H]3O[C@H]4C[C@H]5[C@@H]6CC[C@@H]7C[C@@H](OCc8ccccc8)CC[C@]7(C)[C@H]6CC[C@]5(C)[C@H]4[C@@H]3C)nn2)cc1`, the Activity (SH-SY5Y [2]) is reported as “Non-Toxic”, the Activity (Mus musculus [18]) is reported as “Active” and the Activity (Mus musculus [3]) is reported as “Active”. For the same molecule, the Activity (Mus musculus [5]) was “Active”, the Activity (Mus musculus [19]) was “Active” and the viability at 50 µM (SH-SY5Y [6]) was 63.1%. For the same molecule, the Activity (Mus musculus [7]) was “Active”, the IC50 [8] was 5.84 µM and the inhibition [1] was 84.7%. The Activity (Mus musculus [20]) was “Active”, the Activity (Mus musculus [10]) was “Active” and the Ratio IC50 [11] was 2.6. The Activity (Mus musculus [12]) was “Active”, the Activity (Mus musculus [13]) was “Active” and the viability at 25 µM (SH-SY5Y [14]) was 80.9%. The Activity (Mus musculus [16]) was “Non-Toxic” and the viability at 12.5 µM (SH-SY5Y [17]) was 71.8%.
In the case of `C[C@H]1[C@H]2[C@H](C[C@H]3[C@@H]4CC[C@@H]5C[C@@H](OCc6ccccc6)CC[C@]5(C)[C@H]4CC[C@]23C)O[C@@H]1CC[C@H](C)C(=O)NCc1cn(C)nn1`, the inhibition [1] is reported as 8.34%.
`C[C@H]1[C@H]2[C@H](C[C@H]3[C@@H]4CC[C@@H]5C[C@@H](OCc6ccccc6)CC[C@]5(C)[C@H]4CC[C@]23C)O[C@@H]1CC[C@H](C)C(=O)NCc1cn(Cc2ccc(Cl)cc2)nn1` gave an inhibition [1] of 70.5%.
`C[C@H]1[C@H]2[C@H](C[C@H]3[C@@H]4CC[C@@H]5C[C@@H](OCc6ccccc6)CC[C@]5(C)[C@H]4CC[C@]23C)O[C@@H]1CC[C@H](C)C(=O)NCc1cn(Cc2ccc(Br)cc2)nn1` was tested, and the inhibition [1] was 55.8%.
`CC(C)n1cc(CNC(=O)[C@@H](C)CC[C@H]2O[C@H]3C[C@H]4[C@@H]5CC[C@@H]6C[C@@H](OCc7ccccc7)CC[C@]6(C)[C@H]5CC[C@]4(C)[C@H]3[C@@H]2C)nn1` was tested, and the inhibition [1] was 52.6%.
In the case of `Cc1ccc(Cn2cc(CNC(=O)[C@@H](C)CC[C@H]3O[C@H]4C[C@H]5[C@@H]6CC[C@@H]7C[C@@H](OCc8ccccc8)CC[C@]7(C)[C@H]6CC[C@]5(C)[C@H]4[C@@H]3C)nn2)cc1`, the inhibition [1] is reported as 71.2%.
